Here are results for 4 molecules from patent US4956389A, “Compounds having calcium blocking activity” (priority 1982, dated 1990).

Molecules are shown by their SMILES. Where “and” joins values, the source holds several entries; their conditions need not be identical. Identical values can stand only once. Like-named read-outs stand apart in the source and are kept apart here.

Test [1] concerns portions of the aorta. Kind of test: Contraction of aorta portions by arachidonic acid after oral administration to rabbits (studies in vivo). Further details: species or system rabbit. The method, then: Both substances YS 035 and Nicardipine have been administered orally for a period of three consecutive days to rabbits in such a manner that the last administration of each substance was carried out one hour prior to killing the animals. The portions of the aorta had then been incubated either in PRP as well as in the Krebs-Henseleit liquid.

For test [2], the system named is rats. As to the kind of experiment: Antagonistic effect to biochemical disturbances during the post-oligemic period in rats. In kind it is in vivo, rat. As for the experimental part: Oligemia in rats is caused by simultaneous bilateral occlusion of the carotid arteries associated with a slight decrease (8-9 kPa) of blood pressure and is maintained for 60 minutes. After removal of the occlusion, the post-oligemic period is followed for several days. In this case, the observation is continued up to the third day, at the time during which the brain accumulation of Ca^++ ions reaches the maximum.
The substances YS 035 or Nicardipine respectively, are administered to rats, 1, 5, 18, 24, 42 and 71 hours after having removed the carotid occlusion. The rats are sacrificed after 72 hours and the tissues are rapidly removed in order to determine their content of water, calcium and potassium.

For test [3], the system named is aorta of rabbits. Kind of test: Antagonistic activity on the contractions produced by arachidonic acid on the aorta of rabbits, study in vitro. Further details: species or system rabbit. To be noted: for inhibition at 1 mg/kg: dose 1.0 mg·Kg^-1. As for the experimental part: The study has been carried out by comparison with Nicardipine using autologous blood as the perfusion liquid. The addition of 0.1 mg of arachidonate to the liquid induces an isometric contraction of the aorta which is registered by a transducer. […] This phenomenon is shown by the relaxation which follows the addition of arachidonate to the perfusion blood. This effect may be noted with 0.1 mg/kg of YS 035 and 1 mg/kg of Nicardipine.

In test [4] the test system is isolated guinea-pig atria. To be noted: papaverine with verapamil; cited from earlier work.
For test [5], the system named is kidney cells in newborn hamsters. Kind of test: Inhibition of Ca2+-uptake in kidney cells in newborn hamsters. In kind it is cell-based, hamster. The method, then:
Cells of kidneys of newborn hamsters have been washed and then resuspended several times in concentration of 5·10^6 /cc in the medium of the following composition:
After 15 minutes of preincubation at 30° C., the reaction was made to begin by addition to the medium of ^45 CaCl2 1 mM (0.1μCi/cc). The concentrations at 0 period of time were the concentrations determined two minutes after the addition. The other controls were carried out after 5 minutes, 10 minutes, and 20 minutes. The determination of [Ca^2+ ] was carried out as in the preceding experiment.

Test [6] concerns mitochondria of liver of rats. As to the kind of experiment: Inhibition of Ca2+-uptake in mitochondria of liver of rats. It is filed as biochemical, rat. To be noted: 250 μM; 20° C.; control 14.3. The method, then:
The mitochondria prepared according to classical methods are diluted to a concentration of 1.5 mg/cc in a medium of incubation which has the following composition:
After a period of 15 minutes of preincubation at 20° C. there was added ^45 CaCl2 (50 n mol/mg prot.).
In a manner analogous to the preceding experiments, the concentrations determined after two minutes were called the concentration at 0 period of time. The other controls were determined after 5 minutes, after 10 minutes and after 15 minutes. For the determination of Ca^2+, the experiment was carried out in a manner analogous to the preceding experiments.
The results are reported in Table 3 as the quantity of Ca transferred per mg of protein

In test [7] the target is phosphodiesterase. Kind of test: Inhibition of the phosphodiesterase activity (method of K. G. Nair). It is filed as biochemical. To be noted: read-out: ID50 (inhibiting dose 50%); up to 10 mM. The method, then: The inhibition of phosphodiesterase activity of YS 035 and of papaverine has been assessed according to the method of K. G. Nair (Biochemistry, 5, 150, 1966).
It has been used a medium containing:
2.5 ml of buffer tris-HCl 0.1M pH 7.4;
50 μl CAMP "Sigma" (1 mg/ml);
5 μl Adenosin deaminase (2 mg/ml);
20 μl of alkaline phosphatase "Sigma" (2.6 mg/ml);
15 μl of phosphodiesterase (10 mg/ml).
YS 035 has been added up to a final concentration of 100 mM and Papaverine to a concentration of 10 mM.

The test system of test [8] is synaptosomes of the brain of rats. Kind of test: Inhibition of the Ca2+-uptake in synaptosomes of the brain of rats. It is filed as biochemical, rat. To be noted: 250 μM. The method, then:
The synaptosomes have been prepared from an homogenate of the brain of rats by centrifugation in the gradient of Filcoll at 23,500 rpm for a period of 30 minutes and diluted to 1.5 mg/cc in the medium constituted by:
After 15 minutes of preincubation, ^45 CaCl2, final concentration 1 mM (0.2μCi/cc is added to the medium).
The first determination has been carried out two minutes after the addition. […] After each period, the reaction has been stopped by centrifugation and the radioactivity has been determined in the supernatant as well as in the pellet. The latter had been denatured previously with PCA, neutralized and subsequently centrifuged.

Test [9] concerns phosphodiesterases. To be noted: cited from earlier work.
The test system of test [10] is calcium ion flows. To be noted: cited from earlier work.

Take `COC(=O)C1=C(C)NC(C)=C(C(=O)OCCN(C)Cc2ccccc2)C1c1cccc([N+](=O)[O-])c1` (centres unmarked) [Nicardipine, reference compound]: in test [1] (1 mg·Kg^-1 P.O., Krebs, controls 12 ± 2.3), the “Amplitude of contraction, medium Krebs, individual values” is -30 mm and -10 mm. In addition, in test [1] (1 mg·Kg^-1 P.O., PRP, controls 30 ± 8.0), the “Amplitude of contraction, PRP, individual values” was “+24 mm and +55 mm”. Further, the “site of action (in words)” value in test [1] (aortic endothelial level, particularly PGI2) is “act directly on the synthesis of prostaglandin”. Moreover, the “Cerebral concentration, Ca++” value in test [2] (3 mg·Kg^-1 P.O. 7×, 72 h, post-oligemic controls 28.2 ± 3.22) is on record as 19.3 ± 4.92 mmol·Kg^-1 of dry substance. Moreover, the “Cerebral concentration, H2O” value in test [2] (3 mg·Kg^-1 P.O. 7×, 72 h, post-oligemic controls 80.1 ± 0.37) turned out to be 79.2 ± 0.42%. Moreover, in [2] (3 mg·Kg^-1 P.O. 7×, 72 h, post-oligemic controls 366.2 ± 12.58), the “Cerebral concentration, K+” value was 368.5 ± 19.69 mmol·Kg^-1 of dry substance. Besides, the “intracellular accumulation of Ca++ ions (in words)” value in [2] (rat, in vivo) was “much less significant”. Also, the “Contraction of the first portion of the aorta” value in [3] (N = 4) is 38 ± 4.9 mm. The inhibition at 0.01 mg/kg in test [3] (Oryctolagus cuniculus, dose 0.01 mg·Kg^-1, read-out: Contraction of the second and third portion of the aorta, % Variation) was 6%. Further, in [3] (Oryctolagus cuniculus, dose 0.1 mg·Kg^-1, read-out: Contraction of the second and third portion of the aorta, % Variation), the inhibition at 0.1 mg/kg was 48 ± 15.5%. In addition, the inhibition at 1 mg/kg in test [3] (Oryctolagus cuniculus, read-out: Contraction of the second and third portion of the aorta, % Variation) was 162%; in test [3] (Oryctolagus cuniculus, second and third portion, read-out: % Variation, small contractions observed occasionally prior to relaxation (value in brackets)) it was 84%. The minimal effective dose in test [3] (Oryctolagus cuniculus, autologous blood perfusion, 0.1 mg arachidonate, read-out: dose at which relaxation following the addition of arachidonate is noted) is 1 mg/kg. For the same molecule, in test [3] (YS 035 compared with Nicardipine), the “inhibitory effect on the contraction produced by the arachidonate (in words)” value is given as “comparable”.

As for `COc1ccc(CCN(C)CCCC(C#N)(c2ccc(OC)c(OC)c2)C(C)C)cc1OC` (centres unmarked) [verapamil], the “interaction on the slow entry flows sustained by calcium ions (in words)” value in test [4] is on record as “mutually antagonistic”.

For `COC(=O)C1=C(C)NC(C)=C(C(=O)OC)C1c1ccccc1[N+](=O)[O-]` [Nifedipine, reference compound], the “Ca2+-uptake” value in test [5] (250 μM, 30° C., control 11.9) was determined as 7.9 n g ions/mg prot/15'; in test [6], 9.5 n g ions/mg prot. Besides, in test [5] (Mesocricetus auratus, 0.25 h, 15 min), the percent change in Ca2+-uptake versus control at 250 µM is -33.6%.

With `COc1ccc(Cc2nccc3cc(OC)c(OC)cc23)cc1OC` [Papaverine], in [7], the IC50 stood at 40 µM. The “interaction on the slow entry flows sustained by calcium ions (in words)” value in test [4] is recorded as “mutually antagonistic”. Further, the “inhibitory activity on the calcium uptake (in words)” value in test [8] is on record as “completely devoid of calcium antagonistic activity”. Moreover, the “Ca2+-uptake” value in test [8] (45CaCl2 1 mM, control 80 ± 7) was 79 ± 5 n g ions/mg prot/15 min. For the same molecule, the “main biochemical action (in words)” value in test [9] was “inhibition of phosphodiesterases”. Moreover, in test [10] (at the lower concentrations), the “effect on calcium ion flows (in words)” value is recorded as “stimulation of calcium ion flows”. Further, in [10], the “concentration of antagonism on the calcium ion” value is “about 10^-4 M”. The “calcium antagonistic activity (in words)” value in [10] (conclusion from literature) is recorded as “totally devoid of calcium antagonistic activity”.
